From the NIST ThermoML archive (doi:10.1016/j.tca.2014.05.028)
Numbers after ± are expanded uncertainties.

Assays:
[1] = for mass density: 101 kPa, Liquid, Vibrating tube method; for Triple point temperature: DTA
[2] = Molar enthalpy of transition or fusion; details: DSC

| mass density ([1]; 298.15 K) [kg/m3] | mass density ([1]; 303.15 K) [kg/m3] | mass density ([1]; 308.15 K) [kg/m3] | mass density ([1]; 313.15 K) [kg/m3] | mass density ([1]; 318.15 K) [kg/m3] | mass density ([1]; 323.15 K) [kg/m3] | mass density ([1]; 328.15 K) [kg/m3] | mass density ([1]; 333.15 K) [kg/m3] | mass density ([1]; 338.15 K) [kg/m3] | mass density ([1]; 343.15 K) [kg/m3] | Triple point temperature ([1]; Crystal 1) [K] | Triple point temperature ([1]; Crystal 2) [K] | Molar enthalpy of transition or fusion ([2]; Crystal 1) [kcal/mol] | Molar enthalpy of transition or fusion ([2]; Crystal 2) [kcal/mol] | Triple point temperature ([1]; Crystal) [K] | Molar enthalpy of transition or fusion ([2]; Crystal) [kcal/mol] | Compound |
| --- | --- | --- | --- | --- | --- | --- | --- | --- | --- | --- | --- | --- | --- | --- | --- | --- |
| 1259.96 ± 1.4 | 1255.92 ± 1.4 | 1251.9 ± 1.4 | 1247.91 ± 1.4 | 1243.94 ± 1.4 | 1240 ± 1.4 | 1236.08 ± 1.4 | 1232.19 ± 1.4 | 1228.32 ± 1.3 | 1224.48 ± 1.3 | 476.68 ± 0.41 | 465.12 ± 0.41 | 2.59 ± 0.0908 | 0.698 ± 0.0478 | – | – | CCC[N+]1(C)CCCC1.[Br-] [1-methyl-1-propylpyrrolidinium bromide] |
| 1188.96 ± 0.4 | 1185.14 ± 0.4 | 1181.35 ± 0.4 | 1177.58 ± 0.4 | 1173.84 ± 0.39 | 1170.12 ± 0.39 | 1166.42 ± 0.39 | 1162.75 ± 0.39 | 1159.1 ± 0.38 | 1155.48 ± 0.38 | 431.55 ± 0.41 | 326.85 ± 0.41 | 2.14 ± 0.0789 | 0.466 ± 0.0382 | – | – | CCCCC[N+]1(C)CCCC1.[Br-] [1-methyl-1-pentylpyrrolidinium bromide] |
| 1221.19 ± 2.9 | 1217.27 ± 2.9 | 1213.38 ± 2.8 | 1209.51 ± 2.8 | 1205.66 ± 2.8 | 1201.84 ± 2.8 | 1198.05 ± 2.8 | 1194.28 ± 2.8 | 1190.53 ± 2.7 | 1186.8 ± 2.7 | – | – | – | – | 487.67 ± 0.41 | 3.14 ± 0.108 | CCCC[N+]1(C)CCCC1.[Br-] [1-butyl-1-methylpyrrolidinium bromide] |
